1 compound from US20050143472A1, “Novel treatment for pathologies associated with oxidative damage” (priority 2002, published 2005) can be followed below.

Where two headings read alike, the source gives them in different places.

Experiment [1] has as its system HL-60 human promyelogenous leukemia cells. From the text: In this Example, the method used to examine hpao mRNA production by cultured cells undergoing apoptosis is described.
The target of the next experiment is T1, mPAO (Mus musculus, UniProt Q8C0L6).
T1 construct: the full length cDNA of mpao was released by Nde I and Hind III treatment, and ligated into Nde I and Hind III sites of pET29c; made in house; host or cells: E. coli BL21 GOLD (DE3), plasmid pET-MPAO (pET29c)
T1 sequence (Q8C0L6 whole entry E184K/L285S/R416L/R417S/Q419R/E451A/V490I/S491G/V497A): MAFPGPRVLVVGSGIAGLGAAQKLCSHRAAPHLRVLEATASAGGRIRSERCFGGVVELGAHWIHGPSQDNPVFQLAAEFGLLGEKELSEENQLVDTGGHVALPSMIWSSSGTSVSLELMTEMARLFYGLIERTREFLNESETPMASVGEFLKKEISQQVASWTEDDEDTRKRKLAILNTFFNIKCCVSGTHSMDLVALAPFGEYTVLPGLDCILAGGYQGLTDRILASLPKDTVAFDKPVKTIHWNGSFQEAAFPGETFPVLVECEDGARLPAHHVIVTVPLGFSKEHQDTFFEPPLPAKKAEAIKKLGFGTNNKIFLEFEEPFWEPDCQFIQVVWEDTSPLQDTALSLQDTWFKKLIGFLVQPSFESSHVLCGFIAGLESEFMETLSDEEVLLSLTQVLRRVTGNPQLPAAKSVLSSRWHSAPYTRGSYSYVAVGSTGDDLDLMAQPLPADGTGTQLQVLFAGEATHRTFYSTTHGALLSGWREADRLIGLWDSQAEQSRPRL
Briefly: HPLC analysis of PAO oxidation products. The format is biochemical, murine. From the text:
In this example, methods are described for determining the nature of the products of substrate oxidation by PAO. In a solution at pH 7.6 containing catalase to destroy H2O2, mPAO and N^1-acetyl-Spm, at known concentrations, were allowed to react until the latter had been completely oxidized. mPAO and N^1-acetyl-Spd were similarly allowed to react. Both reactions solutions contained a known amount of N-(3-aminopropyl)-1,10-diaminodecane (Tocris Cookson) as an internal standard. […] Aliquots of these reaction mixtures were treated with dansyl chloride (5-dimethylamino-1-naphthalenesulfonyl chloride) obtained from Sigma. The resulting dansylated polyamine products from each reaction were analyzed by reverse-phase high-pressure liquid chromatography (HPLC) following established procedures (Hunter, Methods in Molecular Biology: Polyamine Protocols, Morgan (ed.) Human Press, Totowa, N.J., Vol. 79, Chapter 14, pp 119-123). […] Detection was accomplished with a Gilson Spetra/Glo fluorescence detector using a 7-51× excitation filter (330-400 nm) and a 3-72M emission filter (460-600 n m). […]
Aliquots of each of the above described enzyme-reaction solutions were treated with an equal volume of 2,4-dinitrophenylhydrazine (Acros Organics) solution (100 mg in 94 mL ethanol+6 mL of concentrated HCl). […] The 368-nm chromatograms were used for quantitative analyses.

On to `CC(=O)NCCCNCCCCNCCCN` [N^1-acetyl-Spm, N^1-acetyl-spermine], for which the HL-60 cell survival entry in experiment [1] (24 hrs, all tested concentrations) is reported as “survived for 24 hrs”. This compound also registered an HL-60 cells survived in experiment [1] (72 hrs exposure, 0.05 mM) of 100%. The HL-60 cells killed amounted to 30% in experiment [1] (72 hrs exposure, 0.1 mM); 50% in experiment [1] (72 hrs exposure, 0.2 mM); 80% in experiment [1] (72 hrs exposure, 0.5 mM). On mPAO (2,4-dinitrophenylhydrazine HPLC), the “3-acetamidopropanal produced on complete oxidation by PAO” value is reported as “equivalent amount”. Besides, the “polyamine product of complete PAO oxidation (Spd or putrescine)” value at mPAO (pH 7.6, catalase present, dansyl chloride HPLC) is given as “stoichiometric amounts”.
